In this experiment the test system is L1210 leukemia ip in BDF1 mice, survival T/C. The experiment can be described thus: NCI In Vivo Anticancer Drug Screen. Data for tumor model L1210 Leukemia (intraperitoneal) in B6D2F1 (BDF1) mice. The settings on record: endpoint: mean survival time, higher = longer survival. The gist of the method: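 Tumor cells were implanted, animals were treated, and survival was followed. The result divides the treated measurement by the vehicle-control measurement.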

Setting [1] is: dose: 100.0 mg/kg/injection, schedule: Q04DX002 (ip), vehicle: Klucel (hydroxypropylcellulose) (HPC).
Setting [2] is: dose: 100.0 mg/kg/injection, schedule: Q01DX001 (ip), vehicle: saline.
Where [3] appears, read: dose: 200.0 mg/kg/injection, schedule: Q01DX001 (ip), vehicle: saline.
[4] abbreviates: dose: 100.0 mg/kg/injection, schedule: Q01DX009 (ip), vehicle: saline with Tween-80.
Setting [5] is: dose: 200.0 mg/kg/injection, schedule: Q01DX009 (ip), vehicle: saline with Tween-80.
[6] abbreviates: dose: 400.0 mg/kg/injection, schedule: Q01DX009 (ip), vehicle: saline with Tween-80.
[7] abbreviates: dose: 100.0 mg/kg/injection, schedule: Q04DX003 (ip), vehicle: saline.
Setting [8] is: dose: 200.0 mg/kg/injection, schedule: Q04DX003 (ip), vehicle: saline.
[9] abbreviates: dose: 400.0 mg/kg/injection, schedule: Q01DX001 (ip), vehicle: saline.
[10] abbreviates: dose: 400.0 mg/kg/injection, schedule: Q04DX003 (ip), vehicle: saline.
Setting [11] is: dose: 100.0 mg/kg/injection, schedule: Q04DX002 (ip), vehicle: saline with Tween-80.
[12] abbreviates: dose: 200.0 mg/kg/injection, schedule: Q04DX002 (ip), vehicle: saline with Tween-80.
Setting [13] is: dose: 400.0 mg/kg/injection, schedule: Q04DX002 (ip), vehicle: saline with Tween-80.
[14] abbreviates: dose: 100.0 mg/kg/injection, schedule: Q01DX001 (ip), vehicle: carboxymethylcellulose (CMC).
The mark [15] stands for this setting: dose: 200.0 mg/kg/injection, schedule: Q01DX001 (ip), vehicle: carboxymethylcellulose (CMC).
[16] abbreviates: dose: 400.0 mg/kg/injection, schedule: Q01DX001 (ip), vehicle: carboxymethylcellulose (CMC).
The mark [17] stands for this setting: dose: 100.0 mg/kg/injection, schedule: Q04DX003 (ip), vehicle: saline with Tween-80.
Setting [18] is: dose: 200.0 mg/kg/injection, schedule: Q04DX003 (ip), vehicle: saline with Tween-80.
Setting [19] is: dose: 400.0 mg/kg/injection, schedule: Q04DX003 (ip), vehicle: saline with Tween-80.

This note sets out measurements from PubChem BioAssay AID248 (DTP/NCI, 2004).

“And” between values parts separate entries of the source, which are not always exact repeats. Identical values can stand only once. Inconclusive results and toxic doses are left out.

Consider `Nc1nc(N)c2[nH]c(CCc3ccccc3)nc2n1`, for which the T/C runs as follows: (dose: 25.0 mg/kg/injection, schedule: Q04DX002 (ip), vehicle: Klucel (hydroxypropylcellulose) (HPC)) 95 % of control; (dose: 50.0 mg/kg/injection, schedule: Q04DX002 (ip), vehicle: Klucel (hydroxypropylcellulose) (HPC)) 91 % of control; under setting [1], 98 % of control.

Consider `CC[N+](C)(C)CC(C)C`, for which the T/C was 104 % of control (dose: 75.0 mg/kg/injection, schedule: Q01DX001 (ip), vehicle: saline) and 107 % of control (dose: 150.0 mg/kg/injection, schedule: Q01DX001 (ip), vehicle: saline).

`NC1(C(=O)O)CSSC1`: the T/C is 97 % of control (dose: 12.5 mg/kg/injection, schedule: Q01DX005 (ip), vehicle: saline); 99 % of control (dose: 25.0 mg/kg/injection, schedule: Q01DX005 (ip), vehicle: saline); 103 % of control and 114 % of control (dose: 50.0 mg/kg/injection, schedule: Q01DX005 (ip), vehicle: saline); 106 % of control under setting [2]; 110 % of control (dose: 100.0 mg/kg/injection, schedule: Q01DX005 (ip), vehicle: saline); 101 % of control under setting [3].

With `NC1CONC1=O` (stereo not drawn), the T/C runs as follows: under setting [4], 101 % of control; under setting [5], 98 % of control; under setting [6], 98 % of control.

In the case of `CCCCOc1ccc(OC(=O)Nc2cccc(C(F)(F)F)c2)cc1`, the T/C under setting [4] is 96 % of control, the T/C under setting [5] is 94 % of control and the T/C under setting [6] was 94 % of control.

As for `O=S(=O)(CCCCl)N1CCOCC1`, the T/C was 102 % of control under setting [2]; 97 % of control under setting [7]; 106 % of control under setting [3]; 106 % of control under setting [8]; 100 % of control under setting [9]; 95 % of control under setting [10].

With `O=c1nc2n(CCN(CCO)CCO)c3cc(Cl)c(Cl)cc3nc-2c(=O)[nH]1`, the T/C is 107 % of control (dose: 5.0 mg/kg/injection, schedule: Q01DX009 (ip), vehicle: saline); 95 % of control (dose: 10.0 mg/kg/injection, schedule: Q01DX001 (ip), vehicle: saline); 93 % of control (dose: 10.0 mg/kg/injection, schedule: Q01DX009 (ip), vehicle: saline); 102 % of control (dose: 20.0 mg/kg/injection, schedule: Q01DX001 (ip), vehicle: saline); 104 % of control (dose: 20.0 mg/kg/injection, schedule: Q01DX009 (ip), vehicle: saline); 91 % of control (dose: 40.0 mg/kg/injection, schedule: Q01DX001 (ip), vehicle: saline).

Turning to `COC(=O)C[N+]12CN3CN(CN(C3)C1)C2`, the T/C runs as follows: (dose: 50.0 mg/kg/injection, schedule: Q01DX001 (ip), vehicle: saline) 98 % of control; under setting [2], 100 % of control; under setting [7], 107 % of control; under setting [3], 96 % of control; under setting [8], 107 % of control; under setting [9], 107 % of control. Under setting [10], the T/C is 108 % of control.

For `O=C(c1ccccc1Cl)c1cccc2ccccc12`, the T/C is, setting by setting: under setting [7], 115 % of control; under setting [8], 100 % of control; under setting [10], 106 % of control.

As to `CC(=O)Nc1cc([As](=O)(O)O)ccc1O`, the T/C (dose: 50.0 mg/kg/injection, schedule: Q01DX009 (ip), vehicle: Klucel (hydroxypropylcellulose) (HPC)) was 105 % of control; the T/C (dose: 100.0 mg/kg/injection, schedule: Q01DX009 (ip), vehicle: Klucel (hydroxypropylcellulose) (HPC)) was 102 % of control; the T/C (dose: 200.0 mg/kg/injection, schedule: Q01DX009 (ip), vehicle: Klucel (hydroxypropylcellulose) (HPC)) was 97 % of control.

Turning to `OC1CCCCC1Sc1ccccc1` (stereo not drawn), the T/C was 117 % of control under setting [11], 111 % of control under setting [12] and 105 % of control under setting [13].

Take `CC(=O)Nc1ccc(Cc2ccc3[nH]c(=O)cc(C)c3c2)cc1`: the T/C was 96 % of control under setting [14], 98 % of control under setting [15] and 101 % of control under setting [16].

With `Cc1c2ccccc2c2ccccc2[n+]1[O-]`, the T/C runs as follows: under setting [11], 97 % of control; under setting [12], 101 % of control.

On to `O=C(O)CCC1CC1C(=O)c1ccccc1` (stereo not drawn), for which the T/C by setting is: (dose: 50.0 mg/kg/injection, schedule: Q04DX003 (ip), vehicle: Klucel (hydroxypropylcellulose) (HPC)) 102 % of control; (dose: 100.0 mg/kg/injection, schedule: Q04DX003 (ip), vehicle: Klucel (hydroxypropylcellulose) (HPC)) 100 % of control; (dose: 200.0 mg/kg/injection, schedule: Q04DX003 (ip), vehicle: Klucel (hydroxypropylcellulose) (HPC)) 103 % of control; (dose: 400.0 mg/kg/injection, schedule: Q04DX003 (ip), vehicle: Klucel (hydroxypropylcellulose) (HPC)) 103 % of control.

`O=c1cc2oc3c(O)c(O)ccc3c3c4ccccc4c(=O)c(c1)c23`: the T/C is 92 % of control (dose: 12.5 mg/kg/injection, schedule: Q01DX009 (ip), vehicle: saline); 96 % of control (dose: 25.0 mg/kg/injection, schedule: Q01DX009 (ip), vehicle: saline); 103 % of control and 91 % of control (dose: 50.0 mg/kg/injection, schedule: Q01DX009 (ip), vehicle: saline); 96 % of control under setting [7]; 102 % of control under setting [8].

`O=[N+]([O-])c1ccc(-n2cnnn2)cc1`: the T/C under setting [14] was 94 % of control, the T/C under setting [15] is 100 % of control and the T/C under setting [16] was 91 % of control.

As for `CC1CN1P(=O)(Oc1ccccc1)N1CC1C` (stereo not drawn), the T/C reads like this: (dose: 44.0 mg/kg/injection, schedule: Q01DX Z (ip), vehicle: saline) 107 % of control; (dose: 67.0 mg/kg/injection, schedule: Q01DX Z (ip), vehicle: saline) 107 % of control; (dose: 100.0 mg/kg/injection, schedule: Q01DX Z (ip), vehicle: saline) 102 % of control; (dose: 150.0 mg/kg/injection, schedule: Q01DX Z (ip), vehicle: saline) 122 % of control.

For `NCC(=O)CCS(=O)(=O)c1ccc(Cl)cc1`, the T/C runs as follows: (dose: 12.5 mg/kg/injection, schedule: Q04DX003 (ip), vehicle: saline) 96 % of control; (dose: 25.0 mg/kg/injection, schedule: Q04DX003 (ip), vehicle: saline) 91 % of control; (dose: 50.0 mg/kg/injection, schedule: Q04DX003 (ip), vehicle: saline) 93 % of control.

`CCOP(=S)(OCC)SCc1ccc(C)cc1`: the T/C under setting [17] was 98 % of control, the T/C under setting [18] was 103 % of control and the T/C under setting [19] was 110 % of control.

`OC1C(Cl)(Cl)CCCC1(Cl)Cl`: the T/C is 90 % of control (dose: 50.0 mg/kg/injection, schedule: Q01DX009 (ip), vehicle: saline with Tween-80); 94 % of control under setting [4]; 98 % of control under setting [5].

On to `CCOC(=O)/C(C)=N/O`, for which the T/C reads like this: under setting [11], 96 % of control; under setting [12], 116 % of control; under setting [13], 104 % of control.

Turning to `Clc1ccc(C=Nc2ccc(Cl)cc2)cc1`, the T/C was 108 % of control under setting [17], 90 % of control under setting [18] and 106 % of control under setting [19].

Consider `CCCCN=C(N)c1ccc(NC(=O)c2ccc(C(=O)Nc3ccc(C(N)=NCCCC)cc3)cc2)cc1`, for which the T/C was 110 % of control (dose: 6.0 mg/kg/injection, schedule: Q01DX001 (ip), vehicle: methylcellulose (MC)); 212 % of control (dose: 6.0 mg/kg/injection, schedule: Q01DX Z (ip), vehicle: methylcellulose (MC)); 100 % of control (dose: 12.0 mg/kg/injection, schedule: Q01DX Z (ip), vehicle: methylcellulose (MC)); 119 % of control (dose: 15.0 mg/kg/injection, schedule: Q01DX001 (ip), vehicle: methylcellulose (MC)).

As for `CCCCCCCCCCCCC(O)(CCC)C(=O)O` (stereo not drawn), the T/C is 102 % of control under setting [1]; 98 % of control (dose: 200.0 mg/kg/injection, schedule: Q04DX002 (ip), vehicle: Klucel (hydroxypropylcellulose) (HPC)); 98 % of control (dose: 400.0 mg/kg/injection, schedule: Q04DX002 (ip), vehicle: Klucel (hydroxypropylcellulose) (HPC)).
